Experimental data from patent publication US20160317474A1, “Managing Visual Dysfunction or Loss of Vision for Diabetic Subjects” (priority 2013, published 2016).
Entries after “also recorded” stand apart in the source; their conditions may differ.

Assays:
STZ-induced DM WT mice = experiment: Optokinetic tracking (OKT) visual function with chronic L-DOPA treatment in STZ-induced diabetic (DM) and CTRL WT mice; type: in vivo; conditions: for reduction in spatial frequency threshold: DM WT+L-DOPA group vs CTRL
Description: (§1) To examine whether DA deficiency causes visual deficits in early DR, the effects of restoring DA levels with L-DOPA on visual function of DM mice was investigated. […] Moreover, the severity of visual deficits progressed over time. The deficit in spatial frequency threshold of DM WT+Veh group (compared with CTRL WT+Veh group) worsened from 7.0% at 3 weeks after STZ to 12.3% at 6 weeks after STZ, whereas the reduction in contrast sensitivity deteriorated from 12.8% at 3 weeks after STZ to 43.6% at 6 weeks after STZ. […] The reduction in spatial frequency threshold of DM WT+L-DOPA group progressed from 2.4% at 3 weeks after STZ to 7.2% at 6 weeks after STZ, whereas the deficit in contrast sensitivity was only significant at 6 weeks after STZ, with an 18.0% reduction from CTRL animals. […] Furthermore, behavioral side effects such as dyskinesia with our current dosage of L-DOPA (10 mg/kg daily) in either CTRL or DM mice was not observed. A dosage was selected that was lower than the typical dosage used to induce dyskinesia (25 mg/kg) yet could still increase retinal DA levels.

DM rTHKO mice = experiment: OKT visual function with L-DOPA treatment in diabetic mice with loss of retinal DA (DM rTHKO); type: in vivo
Protocol: Because systemic injections of L-DOPA affect both brain and retinal dopaminergic systems, the role of retinal DA deficiency underlying visual deficits in early-stage DR was tested by assessing the effects of diabetes in mice with loss of retinal DA (rTHKO mice). It is hypothesized that reduced retinal DA content is a major contributing factor to the early visual deficits, so diabetes in rTHKO mice should not result in a further decline in their visual function.

retinal DA levels = experiment: Retinal dopamine content after daily intraperitoneal L-DOPA; type: in vivo, mice; conditions: daily intraperitoneal injections
Protocol: To validate that daily intraperitoneal injections of L-DOPA were able to increase retinal DA levels, retinal dopamine contents of the following four groups of animals were measured: CTRL WT+Veh, CTRL WT+L-DOPA, DM rTHKO+Veh, and DM rTHKO+L-DOPA. The retinal TH deficiency in the rTHKO mice greatly diminished DA levels compared with both CTRL groups (one-way ANOVA with ranks, H=12.092 with 3 degrees of freedom, p=0.007; Table 3).

[1] = system: retinal function of DM mice
Description: Next, the postreceptoral function (i.e., b-wave) of these animals was examined.

[2] = system: Th, Drd1, Drd4 transcript levels; experiment: Real-time RT-PCR of retinal dopaminergic system-related genes; type: in vivo, mice
Description: Note that the y-axis refers to averaged 2−ΔCt values, with ΔCt calculated by subtracting cycle threshold (Ct) of 18S from Ct of gene of interest (GOI). The asterisk indicates significant difference between the respective treatment group and the CTRL WT group.
The specificity of our Th primers was confirmed, because a >4-fold reduction in Th expression in rTHKO mice (Student's t values: DM rTHKO+Veh=5.964 and DM rTHKO+L-DOPA=5.928, p<0.01; FIG. 7, Table 4) regardless of L-DOPA treatment was found.
Whether diabetes affected transcript levels of DA receptors, specifically D1 receptor (Drd1) and D4 receptor (Drd4), which are selectively involved in spatial frequency threshold and contrast sensitivity was investigated. No significant changes were found in the transcript levels of Drd1 and Drd4 (FIG. 7, Table 4).

[3] = Behavioral side effects (dyskinesia) under L-DOPA; type: in vivo; conditions: L-DOPA 10 mg/kg daily, CTRL or DM mice
Description: as §1

[4] = system: retinal function of DM mice; experiment: Light-adapted flicker ERG (cone pathway function); conditions: 5-week time point
Protocol: Because OKT responses were recorded under photopic conditions, isolated cone pathway function was examined by exposing light-adapted animals to flicker stimuli.

8-week DM WT mice = experiment: OKT responses of 8-week DM WT mice after selective dopamine receptor agonists; type: in vivo; conditions: DM WT mice after 8 weeks of diabetes, agonist injection vs vehicle
Protocol: After 8 weeks of diabetes, the animals were injected with vehicle, D1 receptor (D1R) agonist (SKF38393), and D4 receptor (D4R) agonist (PD168077).

## N[C@@H](Cc1ccc(O)c(O)c1)C(=O)O [L-DOPA, (−)-L-α-amino-β-(3,4-dihydroxybenzene)propanoic acid]
STZ-induced DM WT mice; DM WT and L-DOPA mice, 6 weeks after STZ
  contrast sensitivity change: slight decrease
STZ-induced DM WT mice; DM WT and L-DOPA mice, slower and less severe progression
  onset of visual deficits (spatial frequency threshold): 4 weeks after STZ
STZ-induced DM WT mice; DM WT mice, chronic L-DOPA treatment
  onset and progression of visual dysfunction: significantly delayed
STZ-induced DM WT mice; 3 weeks after STZ, L-DOPA 10 mg/kg daily
  reduction in spatial frequency threshold: 2.4%
STZ-induced DM WT mice; 6 weeks after STZ, L-DOPA 10 mg/kg daily
  reduction in spatial frequency threshold: 7.2%
STZ-induced DM WT mice; DM WT+L-DOPA group, 6 weeks after STZ, L-DOPA 10 mg/kg daily
  deficit in contrast sensitivity (reduction from CTRL animals): 18.0%
STZ-induced DM WT mice; non-diabetic CTRL mice treated with L-DOPA
  spatial frequency threshold or contrast sensitivity in CTRL mice: did not cause significant changes
DM rTHKO mice
  contrast sensitivities vs DM rTHKO+Veh: significantly better
DM rTHKO mice; for the duration of the study
  visual functions of DM rTHKO mice: significantly improved
DM rTHKO mice; throughout the study duration, p<0.001
  spatial frequency thresholds vs DM rTHKO+Veh: significantly higher
Retinal DA levels; CTRL WT+L-DOPA
  DA levels of CTRL mice: did not significantly increase
Retinal DA levels; DM rTHKO+L-DOPA
  retina DA contents of rTHKO mice: levels comparable to those of CTRL animals
[1]; DM rTHKO mice (±L-DOPA) vs CTRL WT, dim and bright flash stimuli
  b-wave amplitude: significantly reduced responses
[1]; DM rTHKO+L-DOPA, dim and bright stimuli
  b-wave implicit times: strong, although not statistically significant, trend for improvement
[2]; DM WT+L-DOPA vs CTRL WT, p<0.05
  Drd4 transcript levels: significant downregulation; also recorded: downregulation of Drd4
[2]; L-DOPA treatment, retina, RT-PCR
  Th transcript levels: trend for Th downregulation
[3]
  behavioral side effects such as dyskinesia: not observed
[4]; DM WT+L-DOPA, light-adapted, 6 Hz flicker
  flicker ERG responses (amplitude and implicit time): levels similar to those of CTRL animals; also recorded: restore ERG responses of DM WT mice to those of CTRL mice
[4]; DM rTHKO+L-DOPA vs CTRL levels
  cone pathway functions (flicker responses): partially restore

## Cc1cccc(C(=O)NCN2CCN(c3ccccc3C#N)CC2)c1 [PD168077]
8-week DM WT mice
  contrast sensitivity: only improved contrast sensitivity
  spatial frequency threshold: failed to improve
8-week DM WT mice; listed as D4 agonist
  contrast sensitivity: significantly enhanced

## Oc1cc2c(cc1O)C(c1ccccc1)CNCC2 (stereo not drawn) [SKF38393, 1-Phenyl-2,3,4,5-tetrahydro-(1H)-3-benzazepine-7,8-diol]
8-week DM WT mice
  spatial frequency threshold: only improved spatial frequency threshold
8-week DM WT mice; listed as D1 receptor agonist
  spatial frequency threshold: improved significantly
